Data on nine molecules can be found in publication PMC7180452, “Purine and Purine Isostere Derivatives of Ferrocene: An Evaluation of ADME, Antitumor and Electrochemical Properties” (Molecules, 2020).

The nature of series [1]: Square-wave and cyclic voltammetry on glassy carbon electrode. The format is physicochemical. The settings on record: SWV, 0.5 mol/L NaClO4, pH 9, vs Ag/AgCl. The source says: The electrochemical properties of 6-chloro-7-deazapurine and 6-chloropurine derivatives of ferrocene 11c, 13a and 15b on a glassy carbon electrode were studied using cyclic (CV) and square-wave voltammetry (SWV) in aqueous electrolyte solutions over a wide pH range. The pH was varied from 2 to 10 in order to determine the effect of pH on the voltammograms (net peak currents and potentials). […] The pH of the solution affects the voltammetric response of this compound, i.e., the oxidation of evaluated compounds 11c, 13a and 15b is strongly dependent on it.
The forward (if) and backward (ib) components of the net response (Δi = if − ib) are shown as well (inset in Figure 2). […] The peak P1 occurs in all supporting electrolytes (i.e., at 2 ≤ pH ≤ 10), while the peak P2 is only observed at pH ≥ 9 (see Figure 1). The potential of peak P1 is pH-independent. Comparing to the literature data, peak P1 can be ascribed to the following charge transfer reaction [Fe^II(C5H5)2] ⇌ [Fe^III(C5H5)2]^+ + e^− [44, 48].
All chemicals used in the experiments were of the best grade commercially available (Sigma-Aldrich) and were used without further purification. Stock standard solutions of compounds 11c, 13a, 15b (c = 2.0 × 10^−3 mol/L) and 6-chloropurine (c = 1.2 × 10^−2 mol/L) were prepared from dry pure substances in dimethyl sulfoxide (DMSO, p.a.), purchased from Kemika (Zagreb, Croatia). Stock standard solution of ethynyl ferrocene (c = 1.1 × 10^−2 mol/L) was prepared from dry pure substance in ethanol (Kemika). For the supporting electrolyte, analytical grade NaClO4 (Kemika) was used. Water was deionized by the Millipore Milli-Q system to the resistivity ≥ 18 MΩcm. Voltammetric measurements were carried out using the computer-controlled electrochemical system „PGSTAT 101“ (Eco-Chemie, Utrecht, The Netherlands), controlled by the electrochemical software “NOVA 1.5”. A three-electrode system (BioLogic, Claix, France) with glassy carbon electrode (GCE) of 3 mm in diameter as a working electrode, Ag/AgCl (3 mol/L NaCl) as a reference electrode and a platinum wire as a counter electrode were used. All potentials were expressed versus Ag/AgCl (3 mol/L NaCl) reference electrode. The supporting electrolyte (0.5 mol/L NaClO4), adjusted to the desired pH value, was placed in the electrochemical cell and the required aliquot of the standard analyte solution was added. The solution in the electrochemical cell was degassed with high purity nitrogen for 10 min before measurement, and the nitrogen blanket was maintained thereafter. Before each run, the glassy carbon working electrode was polished with diamond suspension in spray (grain size 6 µm) and rinsed with ethanol and deionized water. All experiments were performed at room temperature. The presented results are reported as the mean value of three independent measurements.

The subject of series [2] is metastatic colorectal adenocarcinoma (SW620). As to the kind of experiment: In vitro antiproliferative activity, SW620. In kind it is cell-based, human. As to conditions: SW620 cells. Here is the method:
(§1) Antiproliferative activity of compounds 11a−11c, 12a−12c, 13a−13c, 14a−14c, 15a−15c, 16a, 23a−23c, 24a−24c, 25a−25c, 34a−34c and 35a−35c was evaluated in vitro on four human tumor cell lines (American Type Culture Collection, Manassas, VA, USA): metastatic colorectal adenocarcinoma (SW620), ductal pancreatic adenocarcinoma (CFPAC-1), hepatocellular carcinoma (HepG2) and cervical carcinoma (HeLa) as well as normal skin fibroblasts (HFF).

Series [3] has as its system ductal pancreatic adenocarcinoma (CFPAC-1). As to the kind of experiment: In vitro antiproliferative activity, CFPAC-1. In kind it is cell-based, human. The settings on record: CFPAC-1 cells. Here is the method:
as §1

The subject of series [4] is hepatocellular carcinoma (HepG2). The series can be described thus: In vitro antiproliferative activity, HepG2. In kind it is cell-based, human. As to conditions: HepG2 cells. Here is the method: as §1
The subject of series [5] is cervical carcinoma (HeLa). As to the kind of experiment: In vitro antiproliferative activity, HeLa. In kind it is cell-based, human. As to conditions: HeLa cells. Here is the method:
as §1

Series [6] deals with normal skin fibroblasts (HFF). As to the kind of experiment: Cytotoxicity on non-tumor cells, HFF. The format is cell-based, human. Here is the method:
as §1

The conditions of series [7]: pH 7.4.
Description: The distribution coefficient Chrom logD, a parameter used to assess the lipophilicity of compounds [36, 37], was determined for novel purine and purine isosteres with a ferrocene motif as shown in Table 1.
The distribution coefficient, Chrom logD, was determined from compounds’ gradient retention times by employing a high-performance liquid chromatography method with fast acetonitrile gradient. Compounds were prepared for analysis in final concentration of 1.25 mM by dilution of 10 mM stock solutions in DMSO with acetonitrile. Aqueous mobile phase was 50 mM ammonium acetate adjusted with ammonia solution to pH 7.4 and the organic mobile phase was acetonitrile. A reversed phase HPLC column Luna C18, 50 × 3 mm i.d., 5 µm particle size (Phenomenex, Torrance, CA, USA) was used for analysis. Sample injection volume was 2 µL and the flow rate was 1 mL min^−1. All compounds were analysed in duplicates. Fast-gradient elution was as follows: from 0 to 100% of acetonitrile (0−3 min), 100% of acetonitrile (3.0−3.5 min), from 100 to 0% of acetonitrile (3.5−3.7 min), and re-equilibration with 100% of aqueous mobile phase (3.7−5.0 min). All measurements were performed on an HPLC-DAD instrument Agilent 1100 Series (Agilent Technologies, Santa Clara, CA, USA) coupled with a mass spectrometer Micromass Quattro API (Waters, MA, USA). MassLynx software, version 4.1 (Waters, Manchester, UK) was used for data acquisition and processing. Before compound analysis, a calibration step was performed. A set of standard compounds with literature CHI values [36] were plotted against gradient retention times to obtain a calibration equation, which was used to determine CHI value from the compounds’ retention times.

For the molecule `Clc1ncnc2nc[nH]c12` [6-chloropurine, reference compound], the “Oxidation peak P2 potential (triazole)” value in series [1] is “No anodic peak P2 was detected”.

Consider `CC([c-]1cccc1)n1cc(Cn2ccc3cc(I)ccc32)nn1.[Fe+2].c1cc[cH-]c1` (centres unmarked) [Compound 25b, 5-Iodo-1-[1-(1-ferrocenyl-1-methylmethyl-1,2,3-triazol-4-yl)methyl]-1H-indole], for which the IC50 in series [2], in series [3], in series [4], in series [5] and in series [6] was more than 100 µM each time. For the same molecule, the “Chrom logD” value in series [7] is more than 6.57.

As for `[Fe+2].c1cc[cH-]c1.c1ccc2c(c1)ccn2Cc1cn(-[c-]2cccc2)nn1` [Compound 24c, 1-[1-(1-Ferrocenyl-1,2,3-triazol-4-yl)methyl]-1H-indole], the 50% inhibitory concentration (IC50) in series [2] is more than 100 µM; in series [3], 84.5 ± 15.8 µM; in series [4], 90.9 ± 11.5 µM; in series [5], 88.1 ± 1.18 µM; in series [6] it was more than 100 µM. Besides, the “Chrom logD” value in series [7] was more than 6.57.

For `[Fe+2].c1cc[cH-]c1.c1ccc2c(c1)ncn2Cc1cn(C[c-]2cccc2)nn1` [Compound 23a, 1-[1-(1-Ferrocenylmethyl-1,2,3-triazol-4-yl)methyl]-1H-benzimidazole], the concentration for half-maximal inhibition (IC50) in series [2] was 97 ± 13.6 µM; in series [3], 64.6 ± 12.2 µM; in series [4], 59.9 ± 10.9 µM; in series [5] it was more than 100 µM; in series [6] it was 23.8 ± 3.32 µM. Besides, the “Chrom logD” value in series [7] amounted to 4.56.

In the case of `C#Cc1cc[cH-]c1.[Fe+2].c1cc[cH-]c1` [ethynyl ferrocene, reference compound], the “Oxidation peak P2 potential (triazole)” value in series [1] is recorded as “No anodic peak P2 was detected”.

With `Ic1ccc2c(ccn2Cc2cn(C[c-]3cccc3)nn2)c1.[Fe+2].c1cc[cH-]c1` [Compound 25a, 5-Iodo-1-[1-(1-ferrocenylmethyl-1,2,3-triazol-4-yl)methyl]-1H-indole], the IC50 in series [2] is more than 100 µM; in series [3], more than 100 µM; in series [4], more than 100 µM; in series [5], 78.5 ± 9.36 µM; in series [6] it was more than 100 µM. Moreover, the “Chrom logD” value in series [7] was more than 6.57.

As to `[Fe+2].c1cc[cH-]c1.c1ccc2c(c1)ncn2Cc1cn(-[c-]2cccc2)nn1` [Compound 23c, 1-[1-(1-Ferrocenyl-1,2,3-triazol-4-yl)methyl]-1H-benzimidazole], the IC50 in series [2], in series [3], in series [4], in series [5] and in series [6] was more than 100 µM each time. In series [7], the “Chrom logD” value was determined as 4.45.

For the molecule `Ic1ccc2c(ccn2Cc2cn(-[c-]3cccc3)nn2)c1.[Fe+2].c1cc[cH-]c1` [Compound 25c, 5-Iodo-1-[1-(1-ferrocenyl-1,2,3-triazol-4-yl)methyl]-1H-indole], the IC50 was more than 100 µM in series [2]; more than 100 µM in series [3]; 71.8 ± 3.44 µM in series [4]; 79.4 ± 1.82 µM in series [5]; 4.75 ± 1.7 µM in series [6]. The “Chrom logD” value in series [7] was more than 6.57.

As for `[Fe+2].c1cc[cH-]c1.c1ccc2c(c1)ccn2Cc1cn(C[c-]2cccc2)nn1` [Compound 24a, 1-[1-(1-Ferrocenylmethyl-1,2,3-triazol-4-yl)methyl]-1H-indole], the IC50 in series [2] amounted to 62 ± 8.79 µM; in series [3] it was 78 ± 6.61 µM; in series [4] it was 53.6 ± 5.05 µM; in series [5], 68.7 ± 2.91 µM; in series [6] it was 16.7 ± 8.61 µM. The “Chrom logD” value in series [7] was more than 6.57.
